# Values of other authors in PMC5762609 (Journal of Pharmaceutical Analysis, 2016).
smiles,measurement,value
CC(=O)O[C@H]1C(=O)[C@]23C[C@H]2C[C@H]2OC[C@@]2(OC(C)=O)[C@H]3[C@H](OC(=O)c2ccccc2)[C@]2(O)C[C@H](OC(=O)[C@H](O)[C@@H](NC(=O)OC(C)(C)C)c3ccccc3)C(C)=C1C2(C)C [Larotaxel],Content in tissues,"higher in rich-blood tissues, such as heart, liver, spleen, lung and kidney"
same,Tissue distribution,distributed widely and rapidly
